Source: patent US8952150B2, “Prostaglandin transporter inhibitors and uses thereof” (Albert Einstein College of Medicine of Yeshiva University, priority 2009, dated 2015)

Target: rat PGT (Rattus norvegicus (Rat), UniProt Q00910)
Test: [3H]PGE2 uptake inhibition in MDCK cells stably transfected with rat PGT (percent inhibition and IC50)
Format: cell-based
Details: for Inh (% of Ctl) 0.5 μM: 0.5 μM compound; for Inh (% of Ctl) 0.5 μM / Inh (% of Ctl) 2.5 μM / Inh (% of Ctl) 5 μM / Inh (% of Ctl) 1 μM / Inh (% of Ctl) 10 μM / Inh (% of Ctl) 0.1 μM: inhibition of [3H]PGE2 uptake; for Inh (% of Ctl) 2.5 μM: 2.5 μM compound; for Inh (% of Ctl) 5 μM: 5 μM compound; for Inh (% of Ctl) 1 μM: 1 μM compound; for Inh (% of Ctl) 10 μM: 10 μM compound; for Inh (% of Ctl) 0.1 μM: 0.1 μM compound; for IC50: [3H]PGE2 uptake, MDCK cells stably transfected with rat PGT
Description: MDCK cells stably transfected with rat PGT (Endo et al., 2002) were seeded at 15-20% confluence on 24-well plates. The day on which the cells were seeded was considered day 1. PGE2 uptake experiments were conducted on day 4. All of the PGE2 uptake experiments were conducted at room temperature. On day 4, cells were washed twice with Waymouth buffer (135 mM NaCl, 13 mM H-Hepes, 13 mM Na-Hepes, 2.5 mM CaCl2, 1.2 mM MgCl2, 0.8 mM MgSO4, 5 mM KCl, and 28 mM D-glucose). Then 200 μL of Waymouth buffer containing [^3H]PGE2 (purchased from Perkin Elmer) was added to each well. At the designed time, the uptake of [^3H]PGE2 was stopped by aspiration of uptake buffer; this was followed by immediate washing twice with 500 μL of chilled Waymouth buffer. Cells were then lysed with 100 μL lysis buffer containing 0.25% SDS and 0.05 N NaOH. 1.5 mL of scintillation solution was added to each well, and intracellular [^3H]PGE2 was counted by MicroBeta Counter.
For preliminary testing of the compounds, 20 μL of Waymouth buffer containing the compound was added to each well; this was immediately followed by the addition of 180 μL of Waymouth buffer containing [^3H]PGE2. In each well, the total volume of uptake medium was 200 μL. Organic compounds were first dissolved in EtOH and then diluted in Waymouth buffer. The percent inhibition of [^3H]PGE2 uptake by compounds was calculated as [(uptakevehicle−uptakeinhibitor)÷(uptakevehicle)]×100.
IC50 was calculated by fitting an equation of y=m1−m1*(m0/(m2+m0)).

| SMILES | Inh (% of Ctl) 0.5 μM | Inh (% of Ctl) 2.5 μM | Inh (% of Ctl) 5 μM | Inh (% of Ctl) 1 μM | Inh (% of Ctl) 10 μM | Inh (% of Ctl) 0.1 μM | IC50 |
| --- | --- | --- | --- | --- | --- | --- | --- |
| O=C(NCCOCCOCCNc1nc(Nc2ccc(O)cc2)nc(Nc2ccc(C(=O)N[C@@H](C(=O)O)c3ccccc3)cc2)n1)c1ccccc1 [compound 79] | 5.4 % of Ctl | 29.2 % of Ctl | 54.9 % of Ctl | – | – | – | – |
| O=C(NCCOCCOCCNc1nc(Nc2ccc(O)cc2)nc(Nc2ccc(C(=O)NCc3ccc4[nH]ccc4c3)cc2)n1)c1ccccc1 [compound 94] | 36.0 % of Ctl | 66.7 % of Ctl | 76.1 % of Ctl | – | – | – | – |
| O=C(NCCCCNc1nc(Nc2ccccc2)nc(Nc2ccc(O)cc2)n1)c1ccccc1 [compound 84] | – | – | 13.7 % of Ctl | 5.7 % of Ctl | 37.1 % of Ctl | – | – |
| COc1cccc(CNC(=O)c2ccc(Nc3nc(NCCOCCOCCNC(=O)c4ccccc4)nc(Nc4ccc(O)cc4)n3)cc2)c1 [compound 88] | 67.6 % of Ctl | 82.6 % of Ctl | 88.2 % of Ctl | – | – | 61.8 % of Ctl | 820 nM |
| O=C(NCCCCCCCNc1nc(Nc2ccccc2)nc(Nc2ccc(O)cc2)n1)c1ccccc1 [compound 63] | – | – | – | 11.0 % of Ctl | 44.1 % of Ctl | – | – |
| O=C(NCCOCCOCCNc1nc(Nc2ccccc2)nc(Nc2ccc(O)cc2)n1)c1cccnc1 [compound 33] | – | – | – | 13.2 % of Ctl | 54.6 % of Ctl | – | – |
| O=C(NCCOCCOCCNc1nc(Nc2ccccc2)nc(Nc2ccc(O)c(Cl)c2)n1)c1ccccc1 [compound 56] | – | – | – | 38.0 % of Ctl | 80.5 % of Ctl | – | – |
| CCCCCCNc1nc(Nc2ccc(O)cc2)nc(Nc2ccc(C(=O)NCc3ccccc3)cc2)n1 [compound 120] | 29.1 % of Ctl | – | – | – | – | 11.2 % of Ctl | – |
| COC(=O)COCCOCCNC(=O)c1ccc(Nc2nc(NCCOCCOCCNC(=O)c3ccccc3)nc(Nc3ccc(O)cc3)n2)cc1 [compound 47] | – | – | – | 22.6 % of Ctl | 76.5 % of Ctl | – | – |
| COc1ccc(Nc2nc(NCCOCCOCCNC(=O)c3ccccc3)nc(Nc3ccccc3)n2)cc1 [compound 1] | 9.6 % of Ctl | – | 8.5 % of Ctl | – | – | – | – |
| CN(Cc1ccccc1)C(=O)c1ccc(Nc2nc(NCCOCCOCCNC(=O)c3ccccc3)nc(Nc3ccc(O)cc3)n2)cc1 [compound 68] | 15.0 % of Ctl | – | 70.8 % of Ctl | – | – | – | – |
| O=C(NCCOCCOCCNc1nc(Nc2ccccc2)nc(Nc2ccc(O)cc2)n1)c1cccc(F)c1 [compound 34] | – | – | – | 25.8 % of Ctl | 81 % of Ctl | – | – |
| O=C(NCCOCCOCCNc1nc(Nc2ccc(C(=O)NCc3ccc(F)cc3)cc2)nc(Nc2ccc3[nH]cnc3c2)n1)c1ccccc1 [compound 142] | 20.1 % of Ctl | – | – | 39.2 % of Ctl | – | 8.4 % of Ctl | – |
| O=C(NCCOCCOCCNc1nc(Nc2ccc(O)cc2)nc(Nc2ccc(C(=O)NCc3ccncc3)cc2)n1)c1ccccc1 [compound 71] | 16.7 % of Ctl | – | 78.4 % of Ctl | – | – | – | – |
| COc1ccc(C(=O)NCCOCCNc2nc(Nc3ccc(O)cc3)nc(Nc3ccc(C(=O)NCc4ccccc4)cc3)n2)cc1 [compound 137] | 64.9 % of Ctl | – | – | 75.6 % of Ctl | – | 42.0 % of Ctl | 36.7 nM |
| O=C(NCCOCCOCCNc1nc(Nc2ccc(O)cc2)nc(Nc2ccc(C(=O)NCc3ccccc3-c3ccccc3)cc2)n1)c1ccccc1 [compound 86] | 70.7 % of Ctl | 81.4 % of Ctl | 86.4 % of Ctl | – | – | 50.0 % of Ctl | 870 nM |
| CN(C)c1nc(NCCOCCOCCNC(=O)c2ccccc2)nc(Nc2ccc(OCc3ccccc3)cc2)n1 [compound 5] | 6.6 % of Ctl | – | 9.6 % of Ctl | – | – | – | – |
| O=C(NCCOCCOCCNc1nc(Nc2ccc(O)cc2)nc(Nc2ccc(C(=O)NCc3c(F)cccc3F)cc2)n1)c1ccccc1 [compound 128] | 71.8 % of Ctl | – | – | 82.2 % of Ctl | – | 36.6 % of Ctl | – |
| O=C(NCCOCCOCCNc1nc(Nc2ccc(O)cc2)nc(Nc2ccc(C(=O)NCc3cc(F)cc(F)c3)cc2)n1)c1ccccc1 [compound 130] | 73.2 % of Ctl | – | – | 81.7 % of Ctl | – | 41.6 % of Ctl | – |
| COCCOCCOCCNc1nc(NCCOCCOCCNC(=O)c2ccccc2)nc(Nc2ccc(OCc3ccccc3)cc2)n1 [compound 7] | 4.8 % of Ctl | – | 22.5 % of Ctl | – | – | – | – |
| COc1ccc(Nc2nc(NCCOCCOCCNC(=O)c3ccccc3)nc(Nc3ccc(O)cc3)n2)cc1 [compound 23] | 14.4 % of Ctl | – | 38.4 % of Ctl | – | – | – | – |
| Cc1cccc(CNC(=O)c2ccc(Nc3nc(NCCOCCOCCNC(=O)c4ccccc4)nc(Nc4ccc(O)cc4)n3)cc2)c1 [compound 107] | 56.3 % of Ctl | 80.7 % of Ctl | 91.3 % of Ctl | – | – | 65.2 % of Ctl | – |
| O=C(NCCOCCOCCNc1nc(Nc2ccc(O)cc2)nc(Nc2ccc(C(=O)NCc3cccc(F)c3F)cc2)n1)c1ccccc1 [compound 126] | 56.3 % of Ctl | – | – | 70.0 % of Ctl | – | 24.0 % of Ctl | – |
| O=C(NCCOCCOCCNc1nc(Nc2ccc(O)cc2)nc(Nc2cccc(C(=O)NCc3ccccc3)c2)n1)c1ccccc1 [compound 78] | 15.5 % of Ctl | 24.5 % of Ctl | 83.2 % of Ctl | – | – | – | – |
| COc1cccc(C(=O)NCCOCCOCCNc2nc(Nc3ccccc3)nc(Nc3ccc(O)cc3)n2)c1 [compound 37] | – | – | – | 32.4 % of Ctl | 79.0 % of Ctl | – | – |
| O=C(NCCOCCOCCNc1nc(O)nc(Nc2ccc(O)cc2)n1)c1ccccc1 [compound 12] | 2.8 % of Ctl | – | 4.7 % of Ctl | – | – | – | – |
| O=C(NCCOCCOCCNc1nc(Nc2ccc(O)cc2)nc(Nc2ccc(C(=O)NCc3ccc(Cl)cc3)cc2)n1)c1ccccc1 [compound 91] | 72.1 % of Ctl | 84.0 % of Ctl | 88.0 % of Ctl | – | – | 60.8 % of Ctl | 620 nM |
| COC(=O)[C@@H](NC(=O)c1ccc(Nc2nc(NCCOCCOCCNC(=O)c3ccccc3)nc(Nc3ccc(O)cc3)n2)cc1)c1ccccc1 [compound 74] | 51.6 % of Ctl | 56.9 % of Ctl | 82.0 % of Ctl | – | – | 45.0 % of Ctl | – |
| O=C(NCCOCCNc1nc(Nc2ccc(O)cc2)nc(Nc2ccc(C(=O)NCc3ccccc3)cc2)n1)c1ccc(F)cc1 [compound 136] | 64.1 % of Ctl | – | – | 77.9 % of Ctl | – | 33.3 % of Ctl | 23.9 nM |
| O=C(NCCOCCOCCNc1nc(Nc2ccc(C(=O)NCc3ccc(F)cc3)cc2)nc(Nc2ccc(O)c(F)c2)n1)c1ccccc1 [compound 143] | 57.8 % of Ctl | – | – | 69.5 % of Ctl | – | 33.7 % of Ctl | 16.5 nM |
